Data on 24 compounds can be found in patent US20090298834A1, “4-(AMINOMETHYL)CYCLOHEXANAMINE DERIVATIVES AS CALCIUM CHANNEL BLOCKERS” (priority 2008, published 2009).

For assay [1], the target named is T1, human α1G T-type channels (Homo sapiens, UniProt O43497).
T1 construct: expressed in transfected cells; host or cells: HEK 293
Description: T-type calcium channel block, whole cell patch clamp (α1G). Type of assay: cell-based. The settings on record: HEK cells stably expressing human α1G; mainly non-inactivated protocol; values above 10 μM represented as 10 μM, values below 0.30 μM represented as 0.30 μM. As to the method:
(§1) T-type calcium channel blocking activity was assayed in human embryonic kidney cells, HEK 293, stably transfected with the T-type calcium channel subunits. Briefly, cells were cultured in Dulbecco's modified eagle medium (DMEM) supplemented with 10% fetal bovine serum, 200 U/ml penicillin and 0.2 mg/ml streptomycin at 37° C. with 5% CO2. At 85% confluency cells were split with 0.25% trypsin/1 mM EDTA and plated at 10% confluency on glass coverslips. At 12 hours the medium was replaced and the cells stably transfected using a standard calcium phosphate protocol and the appropriate calcium channel cDNA's. Fresh DMEM was supplied and the cells transferred to 28° C./5% CO2. Cells were incubated for 1 to 2 days prior to whole cell recording.
(§2) Standard patch-clamp techniques were employed to identify blockers of T-type currents. Briefly, previously described HEK cell lines stably expressing human α1G, α1H and α1I T-type channels were used for all the recordings (passage #: 4-20, 37° C., 5% CO2). Whole cell patch clamp experiments were performed using an Axopatch 200B amplifier (Axon Instruments, Burlingame, Calif.) linked to a personal computer equipped with pCLAMP software. Data were analyzed using Clampfit (Axon Instruments) and SigmaPlot 4.0 (Jandel Scientific). To obtain T-type currents, plastic dishes containing semi-confluent cells were positioned on the stage of a ZEISS AXIOVERT S100 microscope after replacing the culture medium with external solution (see below). Whole-cell patches were obtained using pipettes (borosilicate glass with filament, O.D.: 1.5 mm, I.D.: 0.86 mm, 10 cm length), fabricated on a SUTTER P-97 puller with resistance values of ˜5 MΩ (see below for internal solution).
(§3) In the non-inactivating protocol, the holding potential is set at −110 mV and with a pre-pulse at −100 mV for 1 second prior to the test pulse at −40 mV for 50 ms. In the inactivation protocol, the pre-pulse is at approximately −85 mV for 1 second, which inactivates about 15% of the T-type channels.
(§4) Test compounds were dissolved in external solution, 0.1-0.01% DMSO. After 10 min rest, they were applied by gravity close to the cell using a WPI microfil tubing. The “non-inactivated” pre-pulse was used to examine the resting block of a compound. The “inactivated” protocol was employed to study voltage-dependent block. However, the initial data shown below were mainly obtained using the non-inactivated protocol only. . IC50 values are shown for various compounds of the invention in Table 4 for the drug of interest. Values are shown in μM and values above 10 μM are simply represented as 10 μM.
(Patch clamp records ionic current or voltage across a cell membrane.)

Assay [2] concerns the target T2, human α1H T-type channels (Homo sapiens, UniProt O95180).
T2 construct: expressed in transfected cells; host or cells: HEK 293
Kind of assay: T-type calcium channel block, whole cell patch clamp (α1H). The settings on record: HEK cells stably expressing human α1H; mainly non-inactivated protocol; values above 10 μM represented as 10 μM. Format: cell-based. How it is done:
as §1, §2, §3, §4

T1 sequence (O43497 whole entry): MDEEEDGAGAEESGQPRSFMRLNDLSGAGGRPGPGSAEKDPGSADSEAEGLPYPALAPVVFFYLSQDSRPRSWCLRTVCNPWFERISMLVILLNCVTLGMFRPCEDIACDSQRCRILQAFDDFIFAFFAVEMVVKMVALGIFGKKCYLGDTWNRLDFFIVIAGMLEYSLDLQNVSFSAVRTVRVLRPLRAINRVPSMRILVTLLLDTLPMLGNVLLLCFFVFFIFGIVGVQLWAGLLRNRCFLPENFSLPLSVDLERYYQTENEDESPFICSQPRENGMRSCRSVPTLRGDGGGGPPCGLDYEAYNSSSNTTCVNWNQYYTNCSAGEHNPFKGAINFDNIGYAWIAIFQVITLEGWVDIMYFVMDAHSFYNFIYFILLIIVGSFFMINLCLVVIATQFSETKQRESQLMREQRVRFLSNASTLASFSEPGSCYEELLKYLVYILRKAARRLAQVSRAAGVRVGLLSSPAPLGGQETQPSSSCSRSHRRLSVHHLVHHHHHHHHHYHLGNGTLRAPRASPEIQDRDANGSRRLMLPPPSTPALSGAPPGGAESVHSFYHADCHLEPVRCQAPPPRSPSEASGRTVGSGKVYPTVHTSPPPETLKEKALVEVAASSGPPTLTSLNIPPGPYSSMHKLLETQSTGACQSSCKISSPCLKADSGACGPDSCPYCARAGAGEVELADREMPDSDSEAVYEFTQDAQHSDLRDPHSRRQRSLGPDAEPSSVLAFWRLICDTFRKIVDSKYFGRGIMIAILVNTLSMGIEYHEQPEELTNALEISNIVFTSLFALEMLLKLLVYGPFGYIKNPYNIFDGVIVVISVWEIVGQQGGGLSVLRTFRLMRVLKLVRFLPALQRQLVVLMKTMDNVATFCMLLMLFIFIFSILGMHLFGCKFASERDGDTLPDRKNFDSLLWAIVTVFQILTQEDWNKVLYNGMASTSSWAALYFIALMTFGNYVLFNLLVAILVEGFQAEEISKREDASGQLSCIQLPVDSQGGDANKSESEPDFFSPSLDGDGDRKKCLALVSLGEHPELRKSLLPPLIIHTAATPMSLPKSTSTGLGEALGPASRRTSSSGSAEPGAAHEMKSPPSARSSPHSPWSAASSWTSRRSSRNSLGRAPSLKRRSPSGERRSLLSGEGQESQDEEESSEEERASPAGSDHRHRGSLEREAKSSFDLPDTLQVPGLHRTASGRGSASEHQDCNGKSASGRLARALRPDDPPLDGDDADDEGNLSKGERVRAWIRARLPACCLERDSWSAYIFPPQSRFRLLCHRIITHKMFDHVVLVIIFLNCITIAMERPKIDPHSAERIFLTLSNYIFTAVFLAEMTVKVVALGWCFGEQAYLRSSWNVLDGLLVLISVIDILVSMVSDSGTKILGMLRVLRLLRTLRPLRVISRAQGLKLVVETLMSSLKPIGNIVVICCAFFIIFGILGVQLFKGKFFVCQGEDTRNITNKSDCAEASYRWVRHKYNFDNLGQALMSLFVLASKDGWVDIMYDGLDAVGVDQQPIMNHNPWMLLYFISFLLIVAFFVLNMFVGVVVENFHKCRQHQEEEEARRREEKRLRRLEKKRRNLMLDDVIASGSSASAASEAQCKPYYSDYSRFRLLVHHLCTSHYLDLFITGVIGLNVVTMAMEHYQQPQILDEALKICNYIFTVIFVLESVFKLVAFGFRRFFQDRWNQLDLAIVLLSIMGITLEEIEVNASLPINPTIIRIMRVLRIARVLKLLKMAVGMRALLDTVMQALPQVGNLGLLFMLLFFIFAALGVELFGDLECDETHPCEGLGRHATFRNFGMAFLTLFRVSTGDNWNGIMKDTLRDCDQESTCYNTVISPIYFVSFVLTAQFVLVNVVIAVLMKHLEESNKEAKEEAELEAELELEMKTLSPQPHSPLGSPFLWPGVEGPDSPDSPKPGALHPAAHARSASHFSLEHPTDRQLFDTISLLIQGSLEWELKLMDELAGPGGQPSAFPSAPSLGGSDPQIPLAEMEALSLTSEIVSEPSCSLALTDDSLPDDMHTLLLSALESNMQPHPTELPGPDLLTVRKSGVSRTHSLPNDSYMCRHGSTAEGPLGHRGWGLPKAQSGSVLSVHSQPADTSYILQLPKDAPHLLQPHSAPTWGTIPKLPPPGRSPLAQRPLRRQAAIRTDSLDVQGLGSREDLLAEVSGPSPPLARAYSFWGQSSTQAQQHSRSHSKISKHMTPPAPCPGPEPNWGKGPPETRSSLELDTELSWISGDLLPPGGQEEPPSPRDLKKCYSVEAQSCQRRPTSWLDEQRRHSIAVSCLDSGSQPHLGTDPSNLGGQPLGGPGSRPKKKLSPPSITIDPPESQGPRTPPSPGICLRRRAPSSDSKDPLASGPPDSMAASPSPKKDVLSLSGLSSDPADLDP
T2 sequence (O95180 whole entry): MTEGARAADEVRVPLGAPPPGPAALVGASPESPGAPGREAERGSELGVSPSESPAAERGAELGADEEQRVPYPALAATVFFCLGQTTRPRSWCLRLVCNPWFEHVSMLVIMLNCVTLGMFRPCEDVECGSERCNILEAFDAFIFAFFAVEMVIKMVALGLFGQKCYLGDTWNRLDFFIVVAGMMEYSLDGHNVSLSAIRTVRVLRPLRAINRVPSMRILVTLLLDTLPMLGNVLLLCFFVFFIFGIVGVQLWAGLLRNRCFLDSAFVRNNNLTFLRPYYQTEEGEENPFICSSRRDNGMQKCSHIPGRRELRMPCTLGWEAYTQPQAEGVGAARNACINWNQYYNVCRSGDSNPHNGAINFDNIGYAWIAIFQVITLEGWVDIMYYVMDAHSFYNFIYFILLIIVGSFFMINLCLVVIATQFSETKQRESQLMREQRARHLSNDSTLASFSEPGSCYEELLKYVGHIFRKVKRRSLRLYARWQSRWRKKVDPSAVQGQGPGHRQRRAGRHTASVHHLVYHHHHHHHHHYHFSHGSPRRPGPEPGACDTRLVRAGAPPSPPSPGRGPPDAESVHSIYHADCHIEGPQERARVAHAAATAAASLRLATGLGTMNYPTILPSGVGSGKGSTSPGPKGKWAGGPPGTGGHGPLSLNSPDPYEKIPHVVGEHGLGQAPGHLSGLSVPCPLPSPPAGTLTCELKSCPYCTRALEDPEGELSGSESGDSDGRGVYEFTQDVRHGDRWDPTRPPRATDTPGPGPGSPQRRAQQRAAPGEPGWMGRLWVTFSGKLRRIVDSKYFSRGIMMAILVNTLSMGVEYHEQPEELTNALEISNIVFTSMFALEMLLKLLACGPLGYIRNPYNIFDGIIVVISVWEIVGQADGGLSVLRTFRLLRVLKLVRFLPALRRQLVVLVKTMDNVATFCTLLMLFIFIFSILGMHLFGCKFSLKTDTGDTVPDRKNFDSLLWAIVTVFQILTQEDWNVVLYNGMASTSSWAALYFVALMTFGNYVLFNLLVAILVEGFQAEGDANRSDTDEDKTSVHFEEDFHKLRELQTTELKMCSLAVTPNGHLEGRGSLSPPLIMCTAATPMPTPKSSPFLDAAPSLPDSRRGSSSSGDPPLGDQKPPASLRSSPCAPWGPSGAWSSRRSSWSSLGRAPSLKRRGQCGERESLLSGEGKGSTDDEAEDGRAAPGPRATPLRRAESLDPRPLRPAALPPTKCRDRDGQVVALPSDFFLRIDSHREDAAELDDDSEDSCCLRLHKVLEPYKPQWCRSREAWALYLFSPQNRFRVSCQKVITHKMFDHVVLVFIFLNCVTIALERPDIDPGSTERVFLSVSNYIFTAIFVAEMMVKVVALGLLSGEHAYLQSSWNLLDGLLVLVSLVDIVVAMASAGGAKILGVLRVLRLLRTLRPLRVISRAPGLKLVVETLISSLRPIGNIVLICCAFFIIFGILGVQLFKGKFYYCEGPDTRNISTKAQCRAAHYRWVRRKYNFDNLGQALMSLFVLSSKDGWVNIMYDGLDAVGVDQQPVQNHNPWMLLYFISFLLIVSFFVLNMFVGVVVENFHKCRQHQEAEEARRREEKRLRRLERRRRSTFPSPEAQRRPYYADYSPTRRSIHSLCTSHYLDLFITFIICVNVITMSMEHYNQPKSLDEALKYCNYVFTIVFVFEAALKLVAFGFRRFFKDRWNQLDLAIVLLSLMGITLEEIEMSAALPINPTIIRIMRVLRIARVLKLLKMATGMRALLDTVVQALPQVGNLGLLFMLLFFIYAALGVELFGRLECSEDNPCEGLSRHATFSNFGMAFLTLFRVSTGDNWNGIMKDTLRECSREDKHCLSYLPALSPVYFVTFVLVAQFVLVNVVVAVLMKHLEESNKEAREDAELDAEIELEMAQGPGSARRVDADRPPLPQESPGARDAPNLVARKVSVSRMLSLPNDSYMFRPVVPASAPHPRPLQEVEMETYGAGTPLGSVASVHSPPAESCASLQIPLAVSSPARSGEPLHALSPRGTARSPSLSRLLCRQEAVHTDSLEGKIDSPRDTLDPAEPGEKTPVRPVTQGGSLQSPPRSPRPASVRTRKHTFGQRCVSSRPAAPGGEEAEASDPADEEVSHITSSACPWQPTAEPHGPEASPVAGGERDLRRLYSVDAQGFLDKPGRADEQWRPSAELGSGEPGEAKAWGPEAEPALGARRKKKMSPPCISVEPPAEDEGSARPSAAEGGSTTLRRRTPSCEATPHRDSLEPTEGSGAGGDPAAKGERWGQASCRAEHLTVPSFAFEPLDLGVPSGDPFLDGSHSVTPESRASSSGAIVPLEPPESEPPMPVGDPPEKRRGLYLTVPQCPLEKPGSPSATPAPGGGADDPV

The IC50 is the midpoint of a concentration-inhibition curve. As for `O=C(C[C@H]1CC[C@@H](NC(=O)C2(c3ccccc3)CCNCC2)CC1)NCc1cccc(OC(F)(F)F)c1` [Compound 114, N-(cis-4-(2-oxo-2-(3-(trifluoromethoxy)benzylamino)ethyl)cyclohexyl)-4-phenylpiperidin-4-carboxamide], the IC50 in assay [1] is not below 10 µM.

On to `O=C(NC[C@H]1CC[C@@H](NC(=O)C2(c3ccccc3)CCNCC2)CC1)c1cc(C(F)(F)F)cc(C(F)(F)F)c1` [Compound 128, N-(cis-4-((3,5-bis(trifluoromethyl)benzamido)methyl)cyclohexyl)-4-phenylpiperidine-4-carboxamide], for which the IC50 in assay [1] came out at 5.78 µM.

For `Cc1ccc(-c2csc(NC(=O)C[C@H]3CC[C@@H](NCC4(NC(=O)OC(C)(C)C)CCCC4)CC3)n2)cc1` [Compound 37], the half-maximal inhibitory concentration (IC50) in assay [2] amounted to 5.37 µM.

With `Cc1cccc(CN[C@H]2CC[C@H](CNC(=O)c3cc(C(F)(F)F)cc(C(F)(F)F)c3)CC2)c1O` [Compound 28, N-((trans-4-(2-hydroxy-3-methylbenzylamino)cyclohexyl)methyl)-3,5-bis(trifluoromethyl)benzamide], the IC50 in assay [2] was found to be 2.24 µM.

Consider `Cc1cc(CN[C@H]2CC[C@@H](CNC(=O)c3cc(F)cc(C(F)(F)F)c3)CC2)cc(C)c1O` [Compound 5, 3-fluoro-N-((cis-4-(4-hydroxy-3,5-dimethylbenzylamino)cyclohexyl)methyl)-5-(trifluoromethyl)benzamide], for which, in assay [2], the IC50 was found to be 0.25 µM.

For `O=C(NC[C@H]1CC[C@@H](NCCNS(=O)(=O)C(F)(F)F)CC1)c1cc(F)cc(C(F)(F)F)c1` [Compound 156, 3-fluoro-5-(trifluoromethyl)-N-((cis-4-(2-(trifluoromethylsulfonamido)ethylamino)cyclohexyl)methyl)benzamide], in assay [1], the IC50 is not below 10 µM.

Regarding `Cc1ccc(-c2csc(NC(=O)C[C@H]3CC[C@@H](NC(=O)[C@@H]4C[C@@H](c5ccccc5)CN4)CC3)n2)cc1` [Compound 129, (2S,4S)-N-(cis-4-(2-oxo-2-(4-p-tolylthiazol-2-ylamino)ethyl)cyclohexyl)-4-phenylpyrrolidine-2-carboxamide], in assay [1], the half-maximal inhibitory concentration (IC50) is 5.29 µM.

As to `NC1(C(=O)N[C@H]2CC[C@@H](CC(=O)Nc3cc(C(F)(F)F)cc(C(F)(F)F)c3)CC2)CC1` [Compound 149, 1-amino-N-(cis-4-(2-(3,5-bis(trifluoromethyl)phenylamino)-2-oxoethyl)cyclohexyl)cyclopropanecarboxamide], in assay [1], the IC50 turned out to be 4.07 µM.

As to `Cc1ccc(-c2csc(NC(=O)C[C@H]3CC[C@@H](NC(=O)[C@@H]4CC[C@H](c5ccccc5)N4)CC3)n2)cc1` [Compound 131], in assay [1], the IC50 was determined as 7.56 µM.

For the compound `O=C(C[C@H]1CC[C@H](NC(=O)[C@H]2CCCN2)CC1)Nc1cc(C(F)(F)F)cc(C(F)(F)F)c1` [Compound 118, (R)-N-(trans-4-(2-(3,5-bis(trifluoromethyl)phenylamino)-2-oxoethyl)cyclohexyl)pyrrolidine-2-carboxamide], the IC50 in assay [1] stood at 4.89 µM.

In the case of `O=C(C[C@H]1CC[C@H](NC(=O)[C@@H]2CCCCN2)CC1)Nc1cc(C(F)(F)F)cc(C(F)(F)F)c1` [Compound 120, (S)-N-(trans-4-(2-(3,5-bis(trifluoromethyl)phenylamino)-2-oxoethyl)cyclohexyl)piperidine-2-carboxamide], in assay [1], the IC50 was 4.44 µM.

On to `Cc1ccc(-c2csc(NC(=O)C[C@H]3CC[C@@H](NC(=O)[C@H]4CC[C@@H](c5ccccc5)N4)CC3)n2)cc1` [Compound 138, (2R,5S)-N-(cis-4-(2-oxo-2-(4-p-tolylthiazol-2-ylamino)ethyl)cyclohexyl)-5-phenylpyrrolidine-2-carboxamide], for which the IC50 in assay [1] turned out to be 4.88 µM.

`NC1(C(=O)N[C@H]2CC[C@@H](CC(=O)NCc3cccc(OC(F)(F)F)c3)CC2)CCCCC1` [Compound 109, 1-amino-N-(cis-4-(2-oxo-2-(3-(trifluoromethoxy)benzylamino)ethyl)cyclohexyl)cyclohexanecarboxamide]: the IC50 in assay [1] was not below 10 µM.

For the compound `O=C(C[C@H]1CC[C@@H](NC(=O)C2(O)CCNCC2)CC1)Nc1cc(C(F)(F)F)cc(C(F)(F)F)c1` [Compound 148, N-(cis-4-(2-(3,5-bis(trifluoromethyl)phenylamino)-2-oxoethyl)cyclohexyl)-4-hydroxypipendine-4-carboxamide], in assay [1], the IC50 is 2.94 µM.

For `NC1(C(=O)N[C@H]2CC[C@@H](CNC(=O)c3cc(F)cc(C(F)(F)F)c3)CC2)CCCC1` [Compound 141, N-((cis-4-(1-aminocyclopentanecarboxamido)cyclohexyl)methyl)-3-fluoro-5-(trifluoromethyl)benzamide], in assay [1], the IC50 was not below 10 µM.

For the compound `O=C(NC[C@H]1CC[C@H](NCCNS(=O)(=O)C(F)(F)F)CC1)c1cc(C(F)(F)F)cc(C(F)(F)F)c1` [Compound 155, 3,5-bis(trifluoromethyl)-N-((trans-4-(2-(trifluoromethylsulfonamido)ethylamino)cyclohexyl)methyl)benzamide], the IC50 in assay [1] was determined as 2.65 µM.

For the compound `Cc1ccc(-c2csc(NC(=O)C[C@H]3CC[C@@H](NC(=O)[C@@H]4C[C@H](c5ccccc5)CN4)CC3)n2)cc1` [Compound 130, (2S,4R)-N-(cis-4-(2-oxo-2-(4-p-tolylthiazol-2-ylamino)ethyl)cyclohexyl)-4-phenylpyrrolidine-2-carboxamide], in assay [1], the concentration for half-maximal inhibition (IC50) was 4.11 µM.

For the compound `NC1(C(=O)N[C@H]2CC[C@@H](CNC(=O)c3cc(C(F)(F)F)cc(C(F)(F)F)c3)CC2)CCCC1` [Compound 140, N-((cis-4-(1-aminocyclopentanecarboxamido)cyclohexyl)methyl)-3,5-bis(trifluoromethyl)benzamide], the IC50 in assay [1] was 9.67 µM.

`NC1(C(=O)N[C@H]2CC[C@H](CNC(=O)c3cc(C(F)(F)F)cc(C(F)(F)F)c3)CC2)CCCC1` [Compound 142, N-((trans-4-(1-aminocyclopentanecarboxamido)cyclohexyl)methyl)-3,5-bis(trifluoromethyl)benzamide]: the IC50 in assay [1] was not below 10 µM.

In the case of `O=C(C[C@H]1CC[C@@H](NC(=O)C2CCNCC2)CC1)Nc1cc(C(F)(F)F)cc(C(F)(F)F)c1` [Compound 144, N-(cis-4-(2-(3,5-bis(trifluoromethyl)phenylamino)-2-oxoethyl)cyclohexyl)piperidine-4-carboxamide], the IC50 in assay [1] amounted to 3.82 µM.

Consider `NC1(C(=O)N[C@H]2CC[C@@H](CC(=O)Nc3cc(C(F)(F)F)cc(C(F)(F)F)c3)CC2)CCOCC1` [Compound 147, 4-amino-N-(cis-4-(2-(3,5-bis(trifluoromethyl)phenylamino)-2-oxoethyl)cyclohexyl)tetrahydro-2H-pyran-4-carboxamide], for which, in assay [1], the IC50 was 4.59 µM.

For the compound `O=C(NC[C@H]1CC[C@H](NC(=O)C2(c3ccccc3)CCNCC2)CC1)c1cc(C(F)(F)F)cc(C(F)(F)F)c1` [Compound 136, N-(trans-4-((3,5-bis(trifluoromethyl)benzamido)methyl)cyclohexyl)-4-phenylpiperidine-4-carboxamide], the half-inhibitory concentration (IC50) in assay [1] worked out at 3.81 µM.

In the case of `O=C(C[C@H]1CC[C@@H](NC(=O)[C@H]2C[C@H](O)CN2)CC1)Nc1cc(C(F)(F)F)cc(C(F)(F)F)c1` [Compound 145], the IC50 in assay [1] amounted to 7.6 µM.

Turning to `N[C@H]1CC[C@@H](CC(=O)Nc2cc(C(F)(F)F)cc(C(F)(F)F)c2)CC1` [Compound 106, 2-(cis-4-aminocyclohexyl)-N-(3,5-bis(trifluoromethyl)phenyl)acetamide], the IC50 in assay [1] stood at 6.11 µM.
